Read-outs that look alike come from different tables or passages of the source.
Legend:
PI3K beta = PI3K beta (Homo sapiens, UniProt P42338); test: In vitro enzyme activity assay (ADP-Glo lipid kinase), PI3K beta
Experimental: (§1) An appropriate substrate and ATP were incubated at a suitable condition for lipid kinase reaction, followed by a two-step detection of kinase activity using an ADP-Glo™ kit. Step I: The kinase reaction was terminated and residual ATP was completely removed, leaving ADP only; Step II: A kinase assay reagent was added to convert ADP to ATP by a luciferin/luciferase reaction. Finally, a fluorescence output value was detected and converted into kinase activity.
(§2) • 2) Kit: ADP-Glo™ lipid kinase and PIP2:3PS kit (Promega #V1792)
(§3) The mixture was incubated at 23° C. for 20 min • (10) 2 μL of ATP solution was added, and the mixture was centrifuged at 1000 rpm and was shaken to mix well • (11) The plate was covered, shaken for about 30 s, and incubated for 2 h at 23° C. • (12) 5 μL of ADP-Glo reagent containing 10 mM MgCl2 was added • (13) The mixture was centrifuged at 1000 rpm for 10 s, covered and shaken for about 30 s, and incubated at 23° C. for 60 min • (14) 10 μL of kinase assay reagent was added • (15) The mixture was centrifuged at 1000 rpm for 10 s, and incubated at 23° C. for 60 min • (16) Fluorescence values were measured by an Envision system. • 2. […] The mixture was incubated at 37° C./CO2 for 10 min. • 5) The compound was removed by pipette. Lysis buffer was added at 50 μL/well, and the cells wereincubated on a shaker for 30 min. • 6) After the cells were completely lysed, 16 μL of lysate was transferred to a 384-well plate and 4 μL of prepared AC+D2 in the kit was added. (AC: Eu3+-cryptate antibody binds to phosphorylated AKT, while D2 binds to non-phosphorylated AKT) The mixture was incubated at room temperature for 4 h.

PI3K alpha = PI3K alpha (Homo sapiens, UniProt P42336); test: In vitro enzyme activity assay (ADP-Glo lipid kinase), PI3K alpha
Experimental: as §1, §2, §3

PI3K delta = PI3K delta (Homo sapiens, UniProt O00329); test: In vitro enzyme activity assay (ADP-Glo lipid kinase), PI3K delta; conditions: PI3Kδ IC50, ATP 40 μM, PIP2:3PS 50 μM, 120 min;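 further: kinase reaction run at 23 °C, then leftover ATP depleted and the ADP formed turned back into ATP, with the luciferin/luciferase signal read as kinase activity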
Experimental: as §1, §2
The kit comprises: 1 mM PIP2:3PS, 10× lipid dilution buffer, 1 M magnesium chloride, 10 mM ATP, 10 mM ADP, ADP-Glo reagent, detection buffer and substrate. • 3) Plate: OptiPlate-384, white and transparent (PerkinElmer #6007299) Reagent preparation: • 1) 10x reaction buffer: 500 mM HEPES (4-(2-hydroxyethyl)-1-piperazineethanesulfonic acid), pH 7.5, 500 mM NaCl, 9 mM MgCl2; BSA: 10% stock solution, prepared in-house • 2) Condition for final test system: 1× reaction system: 50 mM HEPES, 50 mM NaCl, 3 mM MgCl2, 0.01% BSA (prepared on the day of experiment), 1% DMSO (v/v) +/−compound • 3) Reaction system: 3 μL of enzyme and substrate mixture (1:1) +2 μL of ATP/MgCl2 mixture +5 μL of ADP-Glo reagent +10 μL detection reagent.
The specific experimental procedures are as follows: • 1) Dilution: 50 nL of 100× compound/DMSO solution were transferred into a test plate using Echo • For PI3Kα, the compound was serially diluted by three fold from the highest concentration 0.111 mM to the 10th concentration. • For PI3Kβ/PI3Kδ/PI3Kγ, the compound was serially diluted by three fold from the highest concentration of 1.11 mM to the 10th concentration. • 2) Kinase reaction: • (1) The target compounds were prepared. 50 nL of 100× compound solution or DMSO was added to the corresponding plate • (2) A 3.33 × reaction buffer was prepared • (3) A 3.33× PIP2:3PS solution were prepared; the PIP2:3PS solution should be thawed by vortex for at least 1 min before use • (4) An ATP solution containing 5.25 mM MgCl2 was prepared • (5) 3.33× PI3Kα/PI3Kβ/PI3Kδ/PI3Kγ solutions were prepared • (6) The lipid kinase solution and PIP2:3PS solution were mixed at a volume ratio of 1:1 • (7) The 3.33 × lipid kinase buffer and PIP2:3PS solution were mixed at a volume ratio of 1:1 • (8) 3 μL of the mixed solution of reaction buffer and PIP2:3PS was added to Columns 1 and 2 of the plate • (9) 3 μL of the mixed solution of the enzyme and PIP2:3PS was added to the wells of the plate other than Columns 1 and 2, and was centrifuged for 10 s (1000 rpm). The mixture was incubated at 23° C. for 20 min • (10) 2 μL of ATP solution was added, and the mixture was centrifuged at 1000 rpm and was shaken to mix well • (11) The plate was covered, shaken for about 30 s, and incubated for 2 h at 23° C. • (12) 5 μL of ADP-Glo reagent containing 10 mM MgCl2 was added • (13) The mixture was centrifuged at 1000 rpm for 10 s, covered and shaken for about 30 s, and incubated at 23° C. for 60 min • (14) 10 μL of kinase assay reagent was added • (15) The mixture was centrifuged at 1000 rpm for 10 s, and incubated at 23° C. for 60 min • (16) Fluorescence values were measured by an Envision system. • 2.

PI3K gamma = PI3K gamma (Homo sapiens, UniProt P48736); test: In vitro enzyme activity assay (ADP-Glo lipid kinase), PI3K gamma; conditions: PI3Kγ IC50, ATP 25 μM, PIP2:3PS 50 μM, 120 min
Experimental: as §1, §2, §3

TMD-8 cell = TMD-8 cell viability test (CellTiter-Glo, 72 h); format: cell-based; conditions: Homo sapiens, TMD8
Experimental: 7) After incubation, readings at 620 and 665 nm on EnVingen were recorded. • <2> TMD-8 cell viability test • 1) Cell Culture
Cells were regularly passaged. Cells at logarithmic growth phase were transferred to the plate. • 2) Plating • (1). Cells were stained with trypan blue and viable cells were counted. • (2). Cell concentration was adjusted to 7000 cells/well • (3). 90 μL of cell suspension was added to each well of the plate and cell-free medium was added to blank control wells. • (4). The plate was incubated overnight at 37° C., 5% CO2 and 100% relative humidity in an incubator. • 3) Preparation of Plate Containing Compound Stock
(1). Preparation of plate containing 400× compound stock: Compounds were diluted from the highest concentration gradient to lowest concentration with DMSO. • 4) Preparation of 10× compound working solution and treatment • (1). Preparation of 10× compound working solution: 78 μL of cell culture medium was added to a V-bottom 96-well plate, and 2 μL of compound stock solution was pipetted from the plate containing 400× compound stock into the cell cultures of 96-well plate. 2 μL of DMSO was added to the vehicle control wells and blank control wells. After compounds or DMSO was added, the mixture was well mixed by a pipette. • (2). 10 μL of DMSO-cell culture medium mixture solution was added to the vehicle control wells and blank control wells. The final concentration of DMSO was 0.25%. • (3). The 96-well cell plate was incubated in the incubator for another 72 h. • 5) CellTiter-Glo Luminescent Cell Viability Assay
The following procedure was performed according to the instructions of Promega CellTiter-Glo luminescent cell viability assay kit (Promega-G7573). • (1). CellTiter-Glo buffer was thawed and let stand at room temperature. • (2). The CellTiter-Glo substrate was let stand at room temperature. • (3). The CellTiter-Glo buffer was added to a flask of CellTiter-Glo substrate to dissolve the substrate, thereby preparing a CellTiter-Glo working solution. • (4). The solution was vortexed to completely dissolve the substrate. • (5). The plate was incubated at room temperature for 30 min for equilibration. • (6). 50 μL (equal to half the volume of cell culture medium in each well) of CellTiter-Glo working solution was added to each well. The plate was covered by aluminum foil to avoid light. • (7). The plate was shaken on an orbital shaker for 2 min to induce cell lysis. • (8). The plate was let stand at room temperature for 10 min to stabilize the luminescence signals. • (9). The luminescence signals were detected on 2104 EnVision plate reader.

[1] = In vivo DMPK study, single dose in female Balb/c mice; conditions: for half-life: female, Balb/c, 1 mg/kg, note lists it as an intravenous parameter, read-out: T1/2 (half-life) (converted); for half-life / Cmax: mouse, plasma; for half-life / Oral DNAUC (dose-normalized area under curve): mice; for Cmax: oral 3 mg/kg, female Balb/c mice
Experimental: Objective: To evaluate the plasma concentration of the compounds and pharmacokinetics after a single dose in female Balb/c mice.
Procedures: 8 healthy adult female Balb/c mice were randomized, 4 for intravenous administration and 4 for oral administration. The compounds were mixed with a proper amount of vehicle for intravenous injection (DMSO/PEG200/water (5:45:50 v/v/v)). The mixture was vortexed and treated with ultrasound to give a 1.0 mg/mL clear solution. The clear solution was filtered through a microporous membrane filter for later use. For the oral group, the vehicle was 0.5% MC/0.2% Tween 80. The compound was mixed with the vehicle, and the mixture was vortexed and ultrasonically treated to give 1.0 mg/mL uniform suspension for later use. The mice were administered intravenously at 1 mg/kg or orally at 3 mg/kg. Whole blood was collected at certain time points, and plasma was separated. The drug concentration was measured by LC-MS/MS, and pharmacokinetic parameters were calculated using
Phoenix WinNonlin software (Pharsight, USA).

Sequence of PI3K delta (O00329 whole entry): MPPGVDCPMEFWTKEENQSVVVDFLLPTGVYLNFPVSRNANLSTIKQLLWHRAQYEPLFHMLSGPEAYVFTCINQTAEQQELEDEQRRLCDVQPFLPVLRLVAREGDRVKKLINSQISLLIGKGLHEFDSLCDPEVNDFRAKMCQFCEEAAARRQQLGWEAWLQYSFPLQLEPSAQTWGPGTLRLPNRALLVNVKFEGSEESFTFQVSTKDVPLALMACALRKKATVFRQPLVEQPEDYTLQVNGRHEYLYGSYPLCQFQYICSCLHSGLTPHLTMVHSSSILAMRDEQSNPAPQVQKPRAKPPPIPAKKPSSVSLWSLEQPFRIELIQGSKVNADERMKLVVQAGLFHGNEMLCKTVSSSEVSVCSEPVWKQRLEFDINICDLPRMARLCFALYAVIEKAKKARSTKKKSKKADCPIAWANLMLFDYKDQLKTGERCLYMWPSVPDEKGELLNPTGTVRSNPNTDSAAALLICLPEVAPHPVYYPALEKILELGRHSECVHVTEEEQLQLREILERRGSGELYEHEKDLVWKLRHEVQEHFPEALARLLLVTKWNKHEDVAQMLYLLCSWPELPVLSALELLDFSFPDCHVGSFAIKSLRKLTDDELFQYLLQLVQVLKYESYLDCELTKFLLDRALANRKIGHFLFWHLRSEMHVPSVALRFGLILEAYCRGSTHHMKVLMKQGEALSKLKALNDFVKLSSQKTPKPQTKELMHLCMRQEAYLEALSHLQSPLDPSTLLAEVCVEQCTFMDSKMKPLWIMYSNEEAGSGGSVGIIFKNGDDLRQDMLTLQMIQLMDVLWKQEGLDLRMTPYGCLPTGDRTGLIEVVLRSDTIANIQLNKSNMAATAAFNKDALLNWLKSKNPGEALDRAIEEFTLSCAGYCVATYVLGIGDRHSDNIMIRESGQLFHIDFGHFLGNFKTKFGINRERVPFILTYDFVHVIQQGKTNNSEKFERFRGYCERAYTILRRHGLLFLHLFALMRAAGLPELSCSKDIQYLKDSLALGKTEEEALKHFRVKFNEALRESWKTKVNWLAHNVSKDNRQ
Sequence of PI3K delta (P27986 whole entry partner): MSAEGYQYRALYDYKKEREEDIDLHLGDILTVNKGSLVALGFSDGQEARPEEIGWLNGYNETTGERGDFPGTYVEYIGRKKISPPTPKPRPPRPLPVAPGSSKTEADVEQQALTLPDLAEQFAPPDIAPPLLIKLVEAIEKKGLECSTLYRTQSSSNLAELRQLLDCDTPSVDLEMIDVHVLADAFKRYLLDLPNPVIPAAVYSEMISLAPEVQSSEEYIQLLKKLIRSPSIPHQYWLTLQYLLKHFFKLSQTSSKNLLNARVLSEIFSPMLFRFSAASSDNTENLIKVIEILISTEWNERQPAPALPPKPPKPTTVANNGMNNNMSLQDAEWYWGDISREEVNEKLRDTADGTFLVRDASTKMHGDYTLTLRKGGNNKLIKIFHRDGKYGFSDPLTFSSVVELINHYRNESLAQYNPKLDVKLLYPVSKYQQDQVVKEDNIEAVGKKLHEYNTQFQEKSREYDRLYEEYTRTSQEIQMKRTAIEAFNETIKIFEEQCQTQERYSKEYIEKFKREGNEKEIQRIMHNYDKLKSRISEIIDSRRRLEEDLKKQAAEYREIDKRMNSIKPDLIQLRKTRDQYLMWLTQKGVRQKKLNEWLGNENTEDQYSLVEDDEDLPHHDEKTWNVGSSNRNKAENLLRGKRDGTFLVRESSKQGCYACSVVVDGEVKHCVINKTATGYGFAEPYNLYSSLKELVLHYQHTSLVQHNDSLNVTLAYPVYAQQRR
Sequence of PI3K gamma (P48736 whole entry): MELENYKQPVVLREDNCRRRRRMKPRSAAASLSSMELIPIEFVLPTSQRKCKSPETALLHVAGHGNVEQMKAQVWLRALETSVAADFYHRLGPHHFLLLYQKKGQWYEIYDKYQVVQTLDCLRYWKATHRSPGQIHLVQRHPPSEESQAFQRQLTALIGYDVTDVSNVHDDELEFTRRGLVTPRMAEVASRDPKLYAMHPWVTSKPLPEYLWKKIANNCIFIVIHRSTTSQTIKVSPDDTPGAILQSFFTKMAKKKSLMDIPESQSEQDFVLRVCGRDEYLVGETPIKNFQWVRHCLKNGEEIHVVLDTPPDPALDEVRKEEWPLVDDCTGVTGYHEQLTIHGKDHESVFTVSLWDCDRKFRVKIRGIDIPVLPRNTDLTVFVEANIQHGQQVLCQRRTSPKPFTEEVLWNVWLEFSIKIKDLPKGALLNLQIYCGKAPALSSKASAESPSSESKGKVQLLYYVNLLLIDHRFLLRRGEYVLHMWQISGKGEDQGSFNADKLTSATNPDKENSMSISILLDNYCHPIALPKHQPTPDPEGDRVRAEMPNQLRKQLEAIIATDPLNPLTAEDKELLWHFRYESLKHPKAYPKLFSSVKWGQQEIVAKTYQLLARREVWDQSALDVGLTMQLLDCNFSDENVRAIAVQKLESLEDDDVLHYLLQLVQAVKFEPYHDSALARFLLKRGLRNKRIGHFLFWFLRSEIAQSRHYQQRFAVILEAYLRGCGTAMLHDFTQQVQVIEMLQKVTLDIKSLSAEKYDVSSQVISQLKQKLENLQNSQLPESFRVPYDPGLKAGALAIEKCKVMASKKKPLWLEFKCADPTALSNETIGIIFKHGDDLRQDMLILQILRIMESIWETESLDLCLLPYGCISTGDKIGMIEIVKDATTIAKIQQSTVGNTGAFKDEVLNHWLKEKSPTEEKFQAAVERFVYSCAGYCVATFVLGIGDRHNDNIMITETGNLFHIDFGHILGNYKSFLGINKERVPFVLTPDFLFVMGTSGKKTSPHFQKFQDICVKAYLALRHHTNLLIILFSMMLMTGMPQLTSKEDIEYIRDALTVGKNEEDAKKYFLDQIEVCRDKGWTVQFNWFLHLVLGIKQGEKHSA
Sequence of PI3K beta (P42338 whole entry): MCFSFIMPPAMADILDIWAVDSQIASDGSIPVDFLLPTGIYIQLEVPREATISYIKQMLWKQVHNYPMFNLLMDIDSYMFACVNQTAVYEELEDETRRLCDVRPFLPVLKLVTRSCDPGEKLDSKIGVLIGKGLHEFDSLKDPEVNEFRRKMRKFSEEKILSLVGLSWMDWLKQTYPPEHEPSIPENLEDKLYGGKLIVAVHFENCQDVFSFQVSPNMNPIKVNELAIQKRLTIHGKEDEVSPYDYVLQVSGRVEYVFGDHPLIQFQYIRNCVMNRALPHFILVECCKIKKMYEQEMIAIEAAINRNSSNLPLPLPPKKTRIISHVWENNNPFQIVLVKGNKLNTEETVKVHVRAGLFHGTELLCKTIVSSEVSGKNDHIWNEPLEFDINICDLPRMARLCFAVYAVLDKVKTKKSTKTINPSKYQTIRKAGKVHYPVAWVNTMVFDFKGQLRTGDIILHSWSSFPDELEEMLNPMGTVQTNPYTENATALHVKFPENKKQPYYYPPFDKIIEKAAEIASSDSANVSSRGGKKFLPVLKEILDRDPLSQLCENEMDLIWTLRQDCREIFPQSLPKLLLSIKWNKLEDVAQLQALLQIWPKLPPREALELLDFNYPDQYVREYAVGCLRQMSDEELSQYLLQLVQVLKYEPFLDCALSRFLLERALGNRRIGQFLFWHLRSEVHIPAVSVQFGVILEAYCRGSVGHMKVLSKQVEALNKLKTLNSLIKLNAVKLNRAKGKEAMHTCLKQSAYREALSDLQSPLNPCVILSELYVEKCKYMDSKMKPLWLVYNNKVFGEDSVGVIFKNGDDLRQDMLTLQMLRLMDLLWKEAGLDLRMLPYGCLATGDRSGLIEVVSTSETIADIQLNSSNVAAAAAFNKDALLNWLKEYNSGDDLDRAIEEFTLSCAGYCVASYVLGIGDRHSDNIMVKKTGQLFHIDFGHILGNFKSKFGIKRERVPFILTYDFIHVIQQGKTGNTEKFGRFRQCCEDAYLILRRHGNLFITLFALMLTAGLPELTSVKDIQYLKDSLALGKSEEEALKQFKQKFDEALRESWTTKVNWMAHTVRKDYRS
Sequence of PI3K beta (P27986 whole entry partner): as the sequence (P27986 whole entry partner) above
Sequence of PI3K alpha (P42336 whole entry): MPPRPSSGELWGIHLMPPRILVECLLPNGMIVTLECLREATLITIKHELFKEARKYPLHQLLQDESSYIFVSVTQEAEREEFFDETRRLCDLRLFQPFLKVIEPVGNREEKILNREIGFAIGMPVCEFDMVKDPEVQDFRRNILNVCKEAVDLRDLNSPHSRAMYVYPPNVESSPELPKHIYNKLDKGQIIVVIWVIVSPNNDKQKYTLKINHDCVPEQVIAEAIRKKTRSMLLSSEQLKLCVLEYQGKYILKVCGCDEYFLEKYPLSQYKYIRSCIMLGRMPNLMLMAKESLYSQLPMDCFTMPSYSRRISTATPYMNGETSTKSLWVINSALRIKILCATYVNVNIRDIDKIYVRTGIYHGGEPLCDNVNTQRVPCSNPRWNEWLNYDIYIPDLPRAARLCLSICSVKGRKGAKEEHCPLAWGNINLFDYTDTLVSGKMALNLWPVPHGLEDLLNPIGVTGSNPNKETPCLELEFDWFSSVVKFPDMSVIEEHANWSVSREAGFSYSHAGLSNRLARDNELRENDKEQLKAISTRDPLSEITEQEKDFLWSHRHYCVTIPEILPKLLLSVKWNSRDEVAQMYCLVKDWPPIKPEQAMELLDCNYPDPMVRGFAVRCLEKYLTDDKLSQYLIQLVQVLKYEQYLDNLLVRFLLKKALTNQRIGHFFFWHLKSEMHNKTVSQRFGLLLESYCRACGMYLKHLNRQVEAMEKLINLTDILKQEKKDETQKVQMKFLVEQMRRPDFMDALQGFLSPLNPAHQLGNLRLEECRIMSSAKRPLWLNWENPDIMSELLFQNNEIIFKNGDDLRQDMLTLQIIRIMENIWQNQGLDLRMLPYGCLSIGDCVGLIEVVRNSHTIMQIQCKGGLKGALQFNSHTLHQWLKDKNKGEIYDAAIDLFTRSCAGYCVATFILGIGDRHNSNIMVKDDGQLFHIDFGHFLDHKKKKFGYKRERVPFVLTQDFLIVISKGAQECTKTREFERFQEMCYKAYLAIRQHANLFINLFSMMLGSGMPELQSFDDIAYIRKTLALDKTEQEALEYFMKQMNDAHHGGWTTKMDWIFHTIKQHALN
Sequence of PI3K alpha (P27986 whole entry partner): as the sequence (P27986 whole entry partner) above

| Compound | IC50 (PI3K delta) [nM] | IC50 (PI3K gamma) [nM] | further results |
| --- | --- | --- | --- |
| COc1ncc(-c2nn(C(C)c3nc4ccc(F)cn4c(=O)c3-c3cccc(F)c3)c3ncnc(N)c23)cc1C#N (single isomer, unassigned) [WX006] | > 1000 | > 10000 | – |
| COc1ncc(-c2nn(C(C)c3nc4ccc(F)cn4c(=O)c3-c3cccc(F)c3)c3ncnc(N)c23)s1 (single isomer, unassigned) [WX008] | 783 | > 10000 | – |
| COc1ccc(-c2nn(C(C)c3nc4ccc(F)cn4c(=O)c3-c3cccc(F)c3)c3ncnc(N)c23)cn1 (single isomer, unassigned) [WX011] | 604 | > 10000 | – |
| CC(C)Oc1ncc(-c2nn(C(C)c3nc4ccc(F)cn4c(=O)c3-c3cccc(F)c3)c3ncnc(N)c23)cc1C#N (single isomer, unassigned) [WX025] | 461 | 1130 | – |
| COc1ccc(-c2nn(C(C)c3nc4ccc(F)cn4c(=O)c3-c3cccc(F)c3)c3ncnc(N)c23)cc1F (stereo not drawn) [WX009] | > 1000 | > 10000 | – |
| CC(C)Oc1ccc(-c2nn(C(C)c3nc4c(Cl)cc(F)cn4c(=O)c3-c3cccc(F)c3)c3ncnc(N)c23)cc1F (stereo not drawn) [WX014] | 229 | 620 | – |
| CC(c1nc2ccc(F)cn2c(=O)c1-c1cccc(F)c1)n1nc(-c2cnc(OCC(F)F)s2)c2c(N)ncnc21 (stereo not drawn) [WX016] | 41.5 | 260 | IC50 (TMD-8 cell): 4110 nM; half-life [1]: 3.85 h; Cmax [1]: 2180 nM; Oral DNAUC (dose-normalized area under curve) [1]: 5599 nM · h/mpk |
| Cc1nc(C)c(-c2nn(C(C)c3nc4ccc(F)cn4c(=O)c3-c3cccc(F)c3)c3ncnc(N)c23)s1 (stereo not drawn) [WX022] | 601 | 9860 | – |
| CC(c1nc2ccc(F)cn2c(=O)c1-c1cccc(F)c1)n1nc(-c2cnc(OCC(F)(F)F)s2)c2c(N)ncnc21 (stereo not drawn) [WX028] | 330 | 2940 | – |
| CC(c1nc2ccc(F)cn2c(=O)c1-c1cccc(F)c1)n1nc(-c2cnc(OC3CC3)s2)c2c(N)ncnc21 (stereo not drawn) [WX030] | 45.6 | 1190 | – |
| CC(c1nc2ccc(F)cn2c(=O)c1-c1cccc(F)c1)n1nc(-c2cnc(C(C)(C)C)s2)c2c(N)ncnc21 (stereo not drawn) [WX032] | 16.3 | 1740 | half-life [1]: 18.4 h; Cmax [1]: 1500 nM; Oral DNAUC (dose-normalized area under curve) [1]: 2662 nM · h/mpk |
| CSc1ccc(-c2nn(C(C)c3nc4ccc(F)cn4c(=O)c3-c3cccc(F)c3)c3ncnc(N)c23)cn1 (stereo not drawn) [WX036] | 66.6 | 1210 | – |
| CC(c1nc2ccc(F)cn2c(=O)c1-c1cccc(F)c1)n1nc(-c2cnc(N(C)C)s2)c2c(N)ncnc21 (stereo not drawn) [WX046] | 3.48 | 494 | half-life [1]: 1.73 h; Cmax [1]: 1560 nM; Oral DNAUC (dose-normalized area under curve) [1]: 1648 nM · h/mpk |
| CC(C)Oc1ncc(-c2nn(C(C)c3nc4ccc(F)cn4c(=O)c3-c3cccc(F)c3)c3ncnc(N)c23)s1 (stereo not drawn) [WX048] | 72.5 | 2030 | – |

Continued, in another order:

| IC50 (PI3K delta) [nM] | IC50 (PI3K gamma) [nM] | Compound | further results |
| --- | --- | --- | --- |
| > 1000 | > 10000 | CC(C)Oc1ccc(-c2nn(C(C)c3nc4ccc(F)cn4c(=O)c3-c3cccc(F)c3)c3ncnc(N)c23)cc1F (single isomer, unassigned) [WX002] | IC50 (PI3K beta; read-out: PI3Kβ IC50, ATP 40 μM, PIP2:3PS 50 μM, 120 min): > 10000 nM; IC50 (PI3K alpha; read-out: PI3Kα IC50, ATP 40 μM, PIP2:3PS 50 μM, 120 min): > 10000 nM |
| > 1000 | > 10000 | CC(C)Oc1ccc(-c2nn(C(C)c3nc4ccc(F)cn4c(=O)c3-c3cccc(F)c3)c3ncnc(N)c23)cn1 (single isomer, unassigned) [WX003] | – |
| 297 | 573 | CC(C)Oc1ccc(-c2nn(C(C)c3nc4c(F)cccn4c(=O)c3-c3cccc(F)c3)c3ncnc(N)c23)cc1F (single isomer, unassigned) [WX013] | – |
| 313 | 7170 | CC(C)Oc1ncc(-c2nn(C(C)c3nc4ccc(F)cn4c(=O)c3-c3cccc(F)c3)c3ncnc(N)c23)cc1C#N (single isomer, unassigned) [WX024] | – |
| 122 | 1550 | COCCOc1ncc(-c2nn(C(C)c3nc4ccc(F)cn4c(=O)c3-c3cccc(F)c3)c3ncnc(N)c23)s1 (stereo not drawn) [WX018] | IC50 (TMD-8 cell): 3420 nM; half-life [1]: 1.4 h; Cmax [1]: 2240 nM; Oral DNAUC (dose-normalized area under curve) [1]: 1244 nM · h/mpk |
| 491 | 275 | CC(c1nc2ccc(F)cn2c(=O)c1-c1cccc(F)c1)n1nc(-c2cnc(OC3CC(F)(F)C3)s2)c2c(N)ncnc21 (stereo not drawn) [WX020] | IC50 (TMD-8 cell): > 50000 nM |
| 4 | 408 | CNc1ncc(-c2nn(C(C)c3nc4ccc(F)cn4c(=O)c3-c3cccc(F)c3)c3ncnc(N)c23)s1 (stereo not drawn) [WX034] | – |
| 271 | 455 | Cc1cccc2nc(C(C)n3nc(-c4ccc(OC(C)C)c(F)c4)c4c(N)ncnc43)c(-c3cccc(F)c3)c(=O)n12 (stereo not drawn) [WX040] | – |
| 13.9 | 582 | Cc1ncc(-c2nn(C(C)c3nc4ccc(F)cn4c(=O)c3-c3cccc(F)c3)c3ncnc(N)c23)s1 (stereo not drawn) [WX050] | half-life [1]: 2.38 h; Cmax [1]: 1260 nM; Oral DNAUC (dose-normalized area under curve) [1]: 1513 nM · h/mpk |
| 188 | 735 | CC(c1nc2ccc(F)cn2c(=O)c1-c1cccc(F)c1)n1nc(-c2cnc3c(c2)OCCO3)c2c(N)ncnc21 (stereo not drawn) [WX056] | Cmax [1]: 4950 nM; Oral DNAUC (dose-normalized area under curve) [1]: 2037 nM · h/mpk; IC50 (PI3K beta): > 10000 nM; IC50 (PI3K alpha): > 10000 nM |

Source: patent US20220112217A1, “PYRAZOLOPYRIMIDINE DERIVATIVE AND USE THEREOF AS PI3K INHIBITOR” (MEDSHINE DISCOVERY INC., priority 2018, published 2022)
